From paper PMC6479639, “Structure-Based Virtual Screening and In Vitro Evaluation of New Trypanosoma cruzi Cruzain Inhibitors” (International Journal of Molecular Sciences, 2019)

Columns and labels:
[1] = tested on: T. cruzi INC-5 bloodstream trypomastigotes; test: microbe, parasite or virus in culture; conditions: Trypanosoma cruzi, 24 h, read-out: LC50 Bloodstream Trypomastigotes T. cruzi INC-5
Text: (§1) For biological evaluation, the compounds Z2 (ZINC9873043), Z3 (ZINC9870651), Z5 (ZINC9715287), and Z6 (ZINC9861447) were selected and purchased from Molport https://www.molport.com (accessed on: 03 March 2018). For evaluation of trypanocidal activity of the selected compounds, two strains (NINOA and INC-5) in the epimastigote or trypomastigote stage of T. cruzi were used. Each strain was used to infect CD-1 mice (18–20 g) intraperitoneally with a concentration of 1 × 10^6 trypomastigotes/mL of blood. In the maximum peak of parasitemia, blood was obtained by cardiac puncture using heparin as an anticoagulant. The parasite concentration was then adjusted with isotonic saline (0.85% NaCl), and 90 μL of blood was used to achieve a concentration of 1 × 10^6 trypomastigotes/mL of blood. A 10 μL sample of each compound was evaluated in 96-well plates. The treatments performed consisted of a negative control, which contained dimethylsulfoxide (DMSO 2.5%) and the four compounds selected from virtual screening. […] Once the selected compounds were added after being homogenized with blood, the plates were incubated at 4 °C for 24 h. Once the incubation time had elapsed, the plates were kept at room temperature for 30 min, and then an aliquot of 5 μL was taken from each well, a fresh preparation was made, and the viable trypomastigotes were counted using the Pizzi method. A calculation of the number of viable trypomastigotes per mL of blood was carried out, and the survival percentages were obtained taking 100% of the negative control. Each test was done in triplicate. […] The LC50 values were determined using Probit statistical analysis of the dose-response, and the results were expressed as the mean of the standard deviation. The results were later converted to micromolar units.

[2] = tested on: T. cruzi INC-5 epimastigotes; test: microbe, parasite or virus in culture; conditions: for CC50: Trypanosoma cruzi, read-out: LC50 Epimastigotes T. cruzi INC-5
Text: as §1

epimastigote = tested on: epimastigote; design: method as in PMID 20961766; conditions: read-out: IC50 replication of the epimastigote; cited from earlier work
[3] = target: cysteine proteases from epimastigotes of Trypanosoma cruzi strain INC-5; test: Enzyme inhibition, protease extract, substrate Z-Phe-Arg-MCA; assay type: biochemical; conditions: protein extract of INC-5 epimastigotes, Z-Phe-Arg-MCA 5 µM, compounds 6.25–200 µM, pH 6.5
Method: T. cruzi epimastigotes of the INC-5 strain were used to obtain a protein extract quantified by the Bradford method. Evaluation of the activity was carried out using the synthetic fluorogenic peptide Z-Phe-Arg-MCA as a substrate at 5 µM, with 1 μg of the enzyme extract and the corresponding compounds (Z2, Z3, Z5, and Z6) at different concentrations (6.25–200 µM) using a reaction buffer (50 mM Na2HPO4, 100 mM NaCl, 5 mM EDTA, 2.5 mM dithiothreitol; pH 6.5) at room temperature. As a negative control of enzyme inhibition, the substrate without compounds was evaluated with 2% DMSO (concentration corresponding to the highest dilution of the compounds). Hydrolysis of the substrate was monitored in a continuous assay for 1 h in the Spectramax M5 spectrofluorometer (Molecular Devices) at 380 nm excitation and 440 nm emission. The mean of fluorescence changes was normalized taking the control (without inhibitor) as 100%. The IC50 values were determined from semilog concentration-response plots using the nonlinear curve-fitting method.

[4] = tested on: trypomastigotes of T. cruzi of the Tulahúen strain in mouse fibroblasts (L929); design: method as in Ferreira et al. (2010) and Pinto et al. (2017); conditions: infected L929 fibroblasts, ref Ferreira et al. (2010) and Pinto et al. (2017); cited from earlier work
[5] = tested on: T. cruzi NINOA bloodstream trypomastigotes; test: microbe, parasite or virus in culture; conditions: Trypanosoma cruzi, 24 h, read-out: LC50 Bloodstream Trypomastigotes T. cruzi NINOA
Text: as §1

[6] = activity previously reported for the compound; cited from earlier work

Compound | CC50 [1] [µM] | CC50 [2] [µM] | IC50 (epimastigote) [µM] | LC50 Epimastigotes T. cruzi INC-5 ([2]; half maximal lytic concentration, epimastigotes, INC-5 strain) | IC50 [3] [µM] | IC50 [4] [µM] | CC50 [5] [µM] | Activity Reported [6]
O=C(Cn1ccnc1[N+](=O)[O-])NCc1ccccc1 [Bzn, benznidazole, reference compound] | 225 ± 26.5 | 9.64 ± 4.2 | 1.8 |  |  |  |  | 
Clc1ccc2[nH]c3c(NCCCN4CCOCC4)ncnc3c2c1 [S1, 8-chloro-N-(3-morpholinopropyl)-5H-pyrimido[5,4-b]-indol-4-amine, reference compound] | > 250 | > 250 |  | did not show an effect | > 200 | 2.5 |  | 
Cc1ccc(NC(=O)CCC(=O)N2CCC(c3ccccc3)=N2)cc1S(=O)(=O)N1CCCCC1 [Z2] | > 250 | 239 ± 9.3 |  |  | > 200 |  | > 250 | Inhibitor of cannabinoid receptor type 2
C[C@H]1CCc2sc(-c3nnc(SCC(=O)N4N=C(c5ccco5)C[C@@H]4c4ccco4)o3)cc2C1 [Z3] | > 250 | > 250 |  |  | 84.4 |  | > 250 | 
COc1ccc([C@H]2CC(c3ccc4ccccc4c3)=NN2C(=O)Cn2cnc3ccsc3c2=O)cc1 [Z4] |  |  |  |  |  |  |  | Amine oxidase inhibitor
Cc1nnc(SCC(=O)N2N=C(c3ccc4ccccc4c3)C[C@@H]2c2ccccc2)n(N)c1=O [Z5] | 185 ± 8.5 | 36.3 ± 9.9 |  |  | 56.2 |  | 166 ± 14.5 | Amine oxidase inhibitor
Cc1ccc(C2=NN(C(=O)CN3C(=O)N[C@](C)(c4ccc(F)c(F)c4)C3=O)[C@H](c3ccco3)C2)cc1 [Z6] | > 250 | > 250 |  |  | 50.4 |  | > 250 | Amine oxidase inhibitor
O=C(CCC(=O)N1CCC(c2ccccc2)=N1)N1CCN(S(=O)(=O)c2ccc3c(c2)CCC3)CC1 [Z7] |  |  |  |  |  |  |  | Inhibitor of aldo keto reductases
CN1N=C(C(=O)N2CCc3c(c(C(=O)N4CCOCC4)nn3CCCc3ccccc3)C2)CCC1=O [Z8] |  |  |  |  |  |  |  | Inhibitor of cathepsin S
C[C@@H](Sc1nnc(C2CCCCC2)o1)C(=O)N1N=C(c2ccc(Cl)cc2)C[C@@H]1c1ccco1 [Z10] |  |  |  |  |  |  |  | Amine oxidase inhibitor
C[C@H](/C=C/C(=O)C=O)NC(=O)[C@@H](Cc1ccccc1)NC(=O)OCc1ccccc1 [compound 186, reference compound] |  |  |  |  |  |  |  | Cz inhibitor
